Measurements as given in US10851073B2, “Protein tyrosine phosphatase inhibitors and methods of use thereof” (Calico Life Sciences LLC, priority 2019, dated 2020).

Experiments:
[1] = target: T1, His tagged PTPN2 (TC45) protein (Homo sapiens, UniProt P17706); assay: Mobility shift assay used to determine potency of PTPN2 inhibitors; assay type: biochemical; details: enzyme 0.5 nM, substrate 2 μM; read-out: PTPN2 MSA IC50
T1 construct: made in house
T1 sequence (P17706 with tags, fused parts or gaps isoform P17706-2): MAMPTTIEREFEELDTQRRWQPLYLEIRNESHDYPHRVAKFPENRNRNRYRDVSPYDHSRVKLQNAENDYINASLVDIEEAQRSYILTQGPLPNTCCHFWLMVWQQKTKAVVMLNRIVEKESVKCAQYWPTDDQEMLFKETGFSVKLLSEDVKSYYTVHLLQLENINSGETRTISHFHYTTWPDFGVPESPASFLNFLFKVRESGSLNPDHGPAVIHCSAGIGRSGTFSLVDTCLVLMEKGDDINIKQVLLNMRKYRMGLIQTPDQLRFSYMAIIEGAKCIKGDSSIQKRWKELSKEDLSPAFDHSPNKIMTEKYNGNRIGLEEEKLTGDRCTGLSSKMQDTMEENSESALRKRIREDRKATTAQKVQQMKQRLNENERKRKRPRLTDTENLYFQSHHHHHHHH
Method in brief: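 Enzyme (0.5 nM) preincubated with compound (12-point, 1:3 dilution) 10 min at room temperature in 50 mM HEPES pH 7.5, 1 mM EGTA, 10 mM EDTA, 0.01% Tween 20, 2 mM DTT; OG488-labelled phospho-insulin-receptor peptide substrate (2 μM) added for 10 min, then quenched. Microfluidic mobility shift (ex 488/em 530 nm) gave % conversion; IC50 from % inhibition.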

[2] = target: T2, His tagged full-length PTPN1 protein (Homo sapiens, UniProt P18031); assay: Mobility shift assay (MSA) used to determine potency of PTPN1 inhibitors; assay type: biochemical; details: enzyme 0.5 nM, substrate 2 μM
T2 construct: made in house
T2 sequence (P18031 with tags, fused parts or gaps): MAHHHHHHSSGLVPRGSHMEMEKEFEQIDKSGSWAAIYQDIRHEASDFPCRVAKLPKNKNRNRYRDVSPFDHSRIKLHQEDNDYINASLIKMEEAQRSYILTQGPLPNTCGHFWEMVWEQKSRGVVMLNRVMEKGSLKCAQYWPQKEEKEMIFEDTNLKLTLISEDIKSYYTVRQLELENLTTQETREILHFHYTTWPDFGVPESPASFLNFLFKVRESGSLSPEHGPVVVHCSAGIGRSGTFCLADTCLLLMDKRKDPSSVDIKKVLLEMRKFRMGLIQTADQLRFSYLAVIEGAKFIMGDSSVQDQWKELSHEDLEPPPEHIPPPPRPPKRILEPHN
Method in brief: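 Full-length His-tagged human PTPN1 (0.5 nM) was preincubated 10 min at room temperature with compound (12-point, 1:3 dilution) in HEPES pH 7.5 buffer with EGTA, EDTA, Tween 20 and DTT. A 2 μM fluorescent phospho-insulin receptor peptide was then added for 10 min before quench. Mobility-shift % conversion gave % inhibition and IC50.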

[3] = system: B16F10 mouse melanoma cells; assay: B16F10 IFNγ-induced cellular growth inhibition assay; assay type: cell-based; details: B16-F10, with 0.5 ng/mL IFNγ, read-out: B16F10 GI IC50
Method in brief: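 B16F10 cells grown in DMEM+10% FBS, with or without 0.5 ng/mL final mouse IFNγ, and dosed in triplicate at 100 μM to 0.001 μM final (0.1% DMSO). Confluence imaged every 6 h for 5 days; percent growth inhibition versus DMSO/with-IFNγ control taken once DMSO/no-IFNγ wells exceeded 95% confluence, giving IC50.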

Structure (SMILES) | IC50 [2] | IC50 [3] | IC50 [1]
C[Si](C)(O)CCCNC1CCc2cc(O)c(N3CC(=O)NS3(=O)=O)c(F)c2C1 (centres unmarked) [Compound 190, 5-[1-fluoro-3-hydroxy-7-({3-[hydroxy(dimethyl)silyl]propyl}amino)-5,6,7,8-tetrahydronaphthalen-2-yl]-1λ^6,2,5-thiadiazolidine-1,1,3-trione] | 0.01 to 0.1 µM | 1 to 10 µM | 0.001 to 0.01 µM
CO[C@@H]1CCc2cc(O)c(N3CC(=O)NS3(=O)=O)c(F)c2C1 (single isomer, unassigned) [Compound 104] | 0.01 to 0.1 µM | 10 to 100 µM | 0.01 to 0.1 µM
O=C1CN(c2c(O)cc3c(c2F)CC(OCC2CC2)CC3)S(=O)(=O)N1 (centres unmarked) [Compound 107, 5-[7-(cyclopropylmethoxy)-1-fluoro-3-hydroxy-5,6,7,8-tetrahydronaphthalen-2-yl]-1λ^6,2,5-thiadiazolidine-1,1,3-trione] | 0.01 to 0.1 µM | 10 to 100 µM | 0.01 to 0.1 µM
O=C1CN(c2c(O)cc3c(c2F)C[C@@H]([C@@H]2CCNC2)CC3)S(=O)(=O)N1 (single isomer, unassigned) [Compound 136, 5-{(7RS)-1-fluoro-3-hydroxy-7-[(3RS)-pyrrolidin-3-yl]-5,6,7,8-tetrahydronaphthalen-2-yl}-1λ^6,2,5-thiadiazolidine-1,1,3-trione] | 0.01 to 0.1 µM | > 100 µM | 0.01 to 0.1 µM
CC(C)C1CCN(C2CCc3cc(O)c(N4CC(=O)NS4(=O)=O)c(F)c3C2)C1 (centres unmarked) [Compound 172, 5-{1-fluoro-3-hydroxy-7-[3-(propan-2-yl)pyrrolidin-1-yl]-5,6,7,8-tetrahydronaphthalen-2-yl}-1λ^6,2,5-thiadiazolidine-1,1,3-trione] | 0.01 to 0.1 µM | 1 to 10 µM | 0.01 to 0.1 µM
O=C1CN(c2c(O)cc3c(c2F)CC(NCC(F)(F)c2ccccc2)CC3)S(=O)(=O)N1 (centres unmarked) [Compound 125, 5-{7-[(2,2-difluoro-2-phenylethyl)amino]-1-fluoro-3-hydroxy-5,6,7,8-tetrahydronaphthalen-2-yl}-1λ^6,2,5-thiadiazolidine-1,1,3-trione] | 0.01 to 0.1 µM | 10 to 100 µM | 0.001 to 0.01 µM
CC(C)CCN(CCC(C)C)CC1Cc2cc(O)c(N3CC(=O)NS3(=O)=O)c(F)c2C1 (centres unmarked) [Compound 269, 5-(2-{[bis(3-methylbutyl)amino]methyl}-4-fluoro-6-hydroxy-2,3-dihydro-1H-inden-5-yl)-1λ^6,2,5-thiadiazolidine-1,1,3-trione] | 0.001 to 0.01 µM | 10 to 100 µM | 0.001 to 0.01 µM
CC1(C)CC1CCCN1CCc2cc(O)c(N3CC(=O)NS3(=O)=O)c(F)c2C1 (centres unmarked) [Compound 288, 5-{2-[3-(2,2-dimethylcyclopropyl)propyl]-8-fluoro-6-hydroxy-1,2,3,4-tetrahydroisoquinolin-7-yl}-1λ^6,2,5-thiadiazolidine-1,1,3-trione] | 0.001 to 0.01 µM | 1 to 10 µM | 0.01 to 0.1 µM
O=C1CN(c2c(O)cc3c(c2F)CC(OCC2CC(F)(F)C2)CC3)S(=O)(=O)N1 (centres unmarked) [Compound 119, 5-{7-[(3,3-difluorocyclobutyl)methoxy]-1-fluoro-3-hydroxy-5,6,7,8-tetrahydronaphthalen-2-yl}-1λ^6,2,5-thiadiazolidine-1,1,3-trione] | 0.001 to 0.01 µM | 1 to 10 µM | 0.001 to 0.01 µM
O=C1CN(c2c(O)cc3c(c2F)CC(NCCC(O)(C(F)(F)F)C(F)(F)F)CC3)S(=O)(=O)N1 (centres unmarked) [Compound 130, 5-(1-fluoro-3-hydroxy-7-{[4,4,4-trifluoro-3-hydroxy-3-(trifluoromethyl)butyl]amino}-5,6,7,8-tetrahydronaphthalen-2-yl)-1λ^6,2,5-thiadiazolidine-1,1,3-trione] | 0.001 to 0.01 µM | 1 to 10 µM | 0.001 to 0.01 µM
O=C1CN(c2c(O)cc3c(c2F)CC(NCC(O)CC(F)(F)F)CC3)S(=O)(=O)N1 (centres unmarked) [Compound 156, 5-{1-fluoro-3-hydroxy-7-[(4,4,4-trifluoro-2-hydroxybutyl)amino]-5,6,7,8-tetrahydronaphthalen-2-yl}-1λ^6,2,5-thiadiazolidine-1,1,3-trione] | 0.001 to 0.01 µM | < 1 µM | 0.001 to 0.01 µM
COCCOC1CCc2cc(O)c(N3CC(=O)NS3(=O)=O)c(F)c2C1 (centres unmarked) [Compound 106, 5-[1-fluoro-3-hydroxy-7-(2-methoxyethoxy)-5,6,7,8-tetrahydronaphthalen-2-yl]-1λ^6,2,5-thiadiazolidine-1,1,3-trione] | 0.01 to 0.1 µM | 10 to 100 µM | 0.01 to 0.1 µM

The next lines start with results.

IC50 [2] | IC50 [3] | Structure (SMILES) | IC50 [1]
0.001 to 0.01 µM | < 1 µM | CC(C)CCNC1CCc2cc(O)c(N3CC(=O)NS3(=O)=O)c(F)c2C1 (centres unmarked) [Compound 102, 5-{1-fluoro-3-hydroxy-7-[(3-methylbutyl)amino]-5,6,7,8-tetrahydronaphthalen-2-yl}-1λ^6,2,5-thiadiazolidine-1,1,3-trione] | < 0.001 µM
0.01 to 0.1 µM | 1 to 10 µM | O=C1CN(c2c(O)cc3c(c2F)C[C@@H](NCCC2CC2)CC3)S(=O)(=O)N1 (single isomer, unassigned) [Compound 134] | 0.01 to 0.1 µM
0.001 to 0.01 µM | < 1 µM | CC(C)(CO)CCN[C@@H]1CCc2cc(O)c(N3CC(=O)NS3(=O)=O)c(F)c2C1 (single isomer, unassigned) [Compound 308] | 0.001 to 0.01 µM
0.001 to 0.01 µM | < 1 µM | O=C1CN(c2c(O)cc3c(c2F)CC(NCCC(C(F)(F)F)C(F)(F)F)CC3)S(=O)(=O)N1 (centres unmarked) [Compound 131, 5-(1-fluoro-3-hydroxy-7-{[4,4,4-trifluoro-3-(trifluoromethyl)butyl]amino}-5,6,7,8-tetrahydronaphthalen-2-yl)-1λ^6,2,5-thiadiazolidine-1,1,3-trione] | 0.001 to 0.01 µM
> 0.1 µM | 1 to 10 µM | O=C1CN(c2c(O)cc3c(c2F)CC(NCCO)CC3)S(=O)(=O)N1 (centres unmarked) [Compound 180, 5-{1-fluoro-3-hydroxy-7-[(2-hydroxyethyl)amino]-5,6,7,8-tetrahydronaphthalen-2-yl}-1λ^6,2,5-thiadiazolidine-1,1,3-trione] | 0.01 to 0.1 µM
0.001 to 0.01 µM | 1 to 10 µM | CC(C)(C#N)CCNC1CCc2cc(O)c(N3CC(=O)NS3(=O)=O)c(F)c2C1 (centres unmarked) [Compound 150, 4-{[8-fluoro-6-hydroxy-7-(1,1,4-trioxo-1λ^6,2,5-thiadiazolidin-2-yl)-1,2,3,4-tetrahydronaphthalen-2-yl]amino}-2,2-dimethylbutanenitrile] | 0.001 to 0.01 µM
0.001 to 0.01 µM | < 1 µM | CC(C)(C)CCNC1CCc2cc(O)c(N3CC(=O)NS3(=O)=O)c(F)c2C1 (centres unmarked) [Compound 174, 5-{7-[(3,3-dimethylbutyl)amino]-1-fluoro-3-hydroxy-5,6,7,8-tetrahydronaphthalen-2-yl}-1λ^6,2,5-thiadiazolidine-1,1,3-trione] | 0.001 to 0.01 µM
0.001 to 0.01 µM | < 1 µM | CC(C)CCCNC1CCc2cc(O)c(N3CC(=O)NS3(=O)=O)c(F)c2C1 (centres unmarked) [Compound 129, 5-{1-fluoro-3-hydroxy-7-[(4-methylpentyl)amino]-5,6,7,8-tetrahydronaphthalen-2-yl}-1λ^6,2,5-thiadiazolidine-1,1,3-trione] | 0.001 to 0.01 µM
0.01 to 0.1 µM | 1 to 10 µM | O=C1CN(c2c(O)cc3c(c2F)CC(NCCC(F)(F)F)CC3)S(=O)(=O)N1 (centres unmarked) [Compound 116, 5-{1-fluoro-3-hydroxy-7-[(3,3,3-trifluoropropyl)amino]-5,6,7,8-tetrahydronaphthalen-2-yl}-1λ^6,2,5-thiadiazolidine-1,1,3-trione] | 0.01 to 0.1 µM
0.01 to 0.1 µM |  | CC(C)CC(=N)NC1CCc2cc(O)c(N3CC(=O)NS3(=O)=O)c(F)c2C1 (centres unmarked) [Compound 195, N-[8-fluoro-6-hydroxy-7-(1,1,4-trioxo-1λ^6,2,5-thiadiazolidin-2-yl)-1,2,3,4-tetrahydronaphthalen-2-yl]-3-methylbutanimidamide] | 0.01 to 0.1 µM
